According to patent US20230303481A1, “LONG-ACTING LOW-ADDICTION HNK DERIVATIVE AND PREPARATION METHOD THEREFOR” (SHENZHEN RUIJIAN BIOTECHNOLOGY CO., LTD, priority 2020, published 2023):
“Also recorded” adds a separate entry of the source. Counter-ions that a name gives are not always drawn.

Key:
mice [1] = test: Forced swimming test (FST), immobility time; type: in vivo; conditions: for antidepressant effect: dose not given; for course of antidepressant efficacy within 7 days: 1 hour to 7 days
Description: One hour before the forced swimming test (FST), the mice were transferred to the laboratory. The test was conducted under normal light condition and monitored by a digital camera. During the test, the mice were individually placed in transparent glass cylinders (28.5 cm in height, 14 cm in diameter) filled with 20 cm height of water (23±1° C.). On the first day, the mice were trained for 6 minutes and then removed from the cylinder. On the second day, the mice were administered saline, HNK, Compound I5, Compound C, and Compound D, and after different time periods, their immobility time was tested. During the last 4 minutes of the entire 6-minute swimming test, the static time was recorded through EthoVision XT (Noldus, Netherlands) of Noldus system. The static time was defined as passive floating, that is there was no other movement except the movements necessary to keep the animal’s head above the water. After every two to three tests, the water in the cylinders was replaced. After the swimming test, the mice were removed from the water and dried under an infrared lamp.
The mice were given 1 mg (A), 10 mg (B) and 30 mg (C) of HNK and Compund I5 by intragastric administration, respectively, and their immobility time was measured after 1 hour and 7 days. The percentage of immobility time is expressed as mean ± SEM. *p<0.05, **p<0.01, compared to base test. Mice of each group was N=8. Saline: saline group; I5: Compound I5 treatment group; HNK: 2R,6R-hydroxynorketamine treatment group.

mice [2] = test: Behavioral sensitization experiment (spontaneous activity measurement); type: in vivo, Male C57BL/6J mice; conditions: 5 mg, 10 mg, 30 mg intragastric once a day for 7 days, 7 days withdrawal, challenge on day 15
Description: (§1) Animals: Male C57BL/6J mice of 8-12 weeks old were randomly divided into groups, 10 mice in each group, with body weight of 18-22 g, fed at room temperature (22±1° C.), under humidity of (50±10)%, illumination time from 8:00 to20:00. The mice had free access to food and water, and adapted to the experimental environment for at least 2-3 days before the experiments. All experiments were conducted from 8:00 to 16:00.
1.1 Small animal spontaneous activity measurement: An animal spontaneous activity infrared analysis system consists of a spontaneous activity box, an infrared probe device and a data acquisition system. The size of the spontaneous activity box is 40 cm × 40 cm × 65 cm, with sound isolation and light isolation, and mounted with a ventilation device. The activity statuses of the animals were recorded by the infrared probe, and the numbers of spontaneous activities of the animals were calculated. In order to test the effect of drugs on spontaneous activities of mice, the mice were randomly divided into 4 groups with 10 mice in each group. The Groups included: vehicle, I5, C, D (5.0, 10.0, 30.0 mg/kg), mor (10 mg/kg). The mice were administrated intragastrically once a day in the morning for 7 consecutive days; after that, the drugs withdrew for 7 days (without any treatment). On the 15th day, mice in each group were given Veh and the drugs (5.0, 10.0, 30.0 mg/kg) by intragastric administration to stimulate. Spontaneous activity of the mice within 1 hour was measured immediately after administration at d1, d7 and d15.
Statistical analysis: Experimental data were expressed as X±SEM. Graphpad software was used for statistical analysis, and t-test was used for comparison between two groups. One-way ANOVA analysis was used for comparison among multiple groups, and then LSD method was used for pairwise comparison.

mice [3] = test: Position preference (CPP) experiment, three-room system; type: in vivo, Male C57BL/6J mice; conditions: 5 mg, 10 mg, 30 mg intragastric, 6 days training, residence time in white box within 15 min
Description: as §1
1.2 CPP experiment: A three-room CPP system includes black and white boxes (25 cm × 25 cm × 30 cm) at left and right sides, separated by a middle box (10 cm × 25 cm × 30 cm). During the experiment, mice were put into the middle box and could freely move to the black and white boxes. A door with the size of 5 cm × 5 cm was arranged between the middle box and each of the black and white boxes. The experiment adopted a biased procedure, which had three stages of pre-test, training, and test stages. During the whole experiment, the environmental conditions such as light, color and smell in the boxes were guaranteed to be consistent.
Pre-test stage: On days 1-3, the spacer plates between the boxes were removed, and all mice were put into the middle box after being injected with saline subcutaneously, allowing them to move freely in the boxes for 15 min, once a day for 3 consecutive days. The residence time of the mice in the black and white boxes was respectively recorded to determine the natural preference of the mice. The mice were trained with the non-natural preference box as the companion medicine box. […]
Test stage: on day 10, the spacer plates were removed, and the mice were put into the middle box allowing to move freely. At the same time, the residence time of the mice in the white box within 15 min were recorded.
Statistical analysis: Experimental data were expressed as X±SEM. […]
Position preference was tested by a three-room system. […] After continuous training for 6 days, the test was carried out, and the residence times of the mice within 15 min in the white box were recorded. […]

[4] = Applicant's experimental studies on addiction of HNK (general statement); type: in vivo
[5] = mice, 1 mg intragastric, measured after 1 hour and 7 days

SMILES: CN[C@@]1(c2ccccc2Cl)CCC[C@@H](OC(=O)c2ccccc2)C1=O [Compound C]
- antidepressant effect (immobility time, forced swimming) (mice [1]; mice, 30 mg): no antidepressant effect
- antidepressant effect (mice [1]; mice): no antidepressant effect
- behavioral sensitization effect on mice (mice [2]): behavioral sensitizing effect; also recorded: behavioral sensitization effect
- position preference effect on mice (mice [3]): induced position preference

SMILES: CN(C)c1ccc(C(=O)O[C@@H]2CCC[C@@](N)(c3ccccc3Cl)C2=O)cc1 [Compound I5, (2R, 6R)-6-p-dimethylaminobenzoyloxydemethylketamine dihydrochloride]
- antidepressant effect (immobility time, forced swimming) (mice [1]; [5]): no antidepressant effect
- antidepressant effect (immobility time, forced swimming) (mice [1]; mice, 10 mg intragastric): had antidepressant effect
- course of antidepressant efficacy within 7 days (mice [1]; mice, 10 mg intragastric): substantially did not decrease within 7 days
- antidepressant effect (immobility time, forced swimming) (mice [1]; mice, 30 mg): had antidepressant effect
- course of antidepressant efficacy within 7 days (mice [1]; mice, 30 mg intragastric): substantially did not decrease within 7 days
- antidepressant effect at the 7th day after administration (reduction in immobility time) (mice [1]; mice, compared with HNK-treated group, 10 mg and 30 mg groups): significant antidepressant effect
- behavioral sensitization effect on mice (mice [2]; dihydrochloride): no behavioral sensitization effect; also recorded: non-sensitization effect
- position preference effect on mice (mice [3]; dihydrochloride): no position preference effect; also recorded: non-position preference effect

SMILES: N[C@]1(c2ccccc2Cl)CCC[C@H](OC(=O)c2ccc(CN3CCOCC3)cc2)C1=O [Compound D]
- antidepressant effect (immobility time, forced swimming) (mice [1]; mice, 30 mg): no antidepressant effect
- antidepressant effect (mice [1]; mice): no antidepressant effect
- behavioral sensitization effect on mice (mice [2]): behavioral sensitizing effect; also recorded: behavioral sensitization effect
- position preference effect on mice (mice [3]): induced position preference

SMILES: N[C@@]1(c2ccccc2Cl)CCC[C@@H](O)C1=O [HNK, (2R,6R)-6-hydroxydemethylketamine, reference compound]
- duration of efficacy after administration (mice [1]; general statement): basically lost activity within one week
- antidepressant effect (immobility time, forced swimming) (mice [1]; [5]): no antidepressant effect
- antidepressant effect (immobility time, forced swimming) (mice [1]; mice, 10 mg intragastric): had antidepressant effect
- course of antidepressant efficacy within 7 days (mice [1]; mice, 10 mg intragastric): decreased rapidly within 7 days, and substantially had no effect on the 7th day
- antidepressant effect (immobility time, forced swimming) (mice [1]; mice, 30 mg): had antidepressant effect
- course of antidepressant efficacy within 7 days (mice [1]; mice, 30 mg intragastric): decayed rapidly within 7 days, and substantially had no effect on the 7th day
- addiction [4]: a certain degree of addiction
